Reference: patent US20240132887A1, “PROTEIN ARGININE METHYLTRANSFERASE 9 INHIBITORS AND METHODS OF USE” (City of Hope, priority 2022, published 2024)

Assays:
PRMT9 = target: T1, PRMT9 (Homo sapiens, UniProt Q6P2P2); experiment: In-house R493 methylation assay (PABPC1 peptide, SAM, dot blot with anti-R493me antibody); assay type: biochemical; conditions: for PRMT9 inhibition (catalytic activity screen of top 20 compounds): compounds 10 μM, PRMT9 pretreated 1 h
T1 construct: Myc; made in house
T1 sequence (Q6P2P2 1-845): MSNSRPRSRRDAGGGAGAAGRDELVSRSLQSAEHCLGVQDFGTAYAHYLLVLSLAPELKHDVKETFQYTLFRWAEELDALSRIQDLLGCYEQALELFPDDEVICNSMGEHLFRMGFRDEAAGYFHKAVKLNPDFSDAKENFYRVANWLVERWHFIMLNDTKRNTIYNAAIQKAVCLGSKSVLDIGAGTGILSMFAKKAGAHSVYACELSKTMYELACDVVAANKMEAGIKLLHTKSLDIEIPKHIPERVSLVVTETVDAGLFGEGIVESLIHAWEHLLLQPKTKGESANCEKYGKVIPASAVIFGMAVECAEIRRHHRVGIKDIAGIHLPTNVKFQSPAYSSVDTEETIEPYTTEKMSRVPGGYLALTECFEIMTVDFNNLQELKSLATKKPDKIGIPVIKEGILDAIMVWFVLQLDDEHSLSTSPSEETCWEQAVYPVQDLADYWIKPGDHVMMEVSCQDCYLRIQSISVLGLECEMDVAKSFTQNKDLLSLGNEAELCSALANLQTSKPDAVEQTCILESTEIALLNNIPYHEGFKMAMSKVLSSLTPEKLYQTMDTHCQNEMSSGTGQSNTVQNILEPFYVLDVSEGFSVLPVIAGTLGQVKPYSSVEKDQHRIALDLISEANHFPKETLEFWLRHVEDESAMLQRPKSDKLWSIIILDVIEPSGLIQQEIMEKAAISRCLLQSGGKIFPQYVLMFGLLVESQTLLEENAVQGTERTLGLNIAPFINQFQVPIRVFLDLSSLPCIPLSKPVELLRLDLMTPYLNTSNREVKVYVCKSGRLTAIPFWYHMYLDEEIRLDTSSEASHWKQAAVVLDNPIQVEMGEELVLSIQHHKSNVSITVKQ
Experimental: FIG. 10D: Catalytic activity screen of 9 selected compounds using an in-house R493 methylation assay. PRMT9 protein was pretreated 1 h with indicated compounds using in vitro methylation buffer and then incubated with synthesized unmodified PABPC1 peptides and SAM. […] Catalytic activity inhibition curves are calculated based on intensity of blots normalized to intensity at 37° C. (n=2). […] Data (FIG. 10I) are represented as mean±SD; P values (FIG. 10I) were determined by two-way ANOVA.
FIG. 11B: In-house R493 methylation assay. Synthesized unmodified PABPC1 peptides (aaG491-T507) were incubated 4 h with PRMT9 and SAM at 30° C. Catalytic activity was assessed by dot blot with anti-R493 specific antibody. PRMT9 or unmodified PABPC1 peptide alone served as negative controls, and synthesized R493me PABPC1 peptide as positive. FIG. 11C: Catalytic activity screen of top 20 compounds based on Molm13 viability assay with an in-house R493 methylation assay. PRMT9 protein was pretreated 1 h with indicated compounds (10 μM) and then incubated with synthesized unmodified PABPC1 peptides and SAM. Catalytic activity was assessed by dot blot with an anti-R493me specific antibody.

[1] = system: MNCs from AML BM specimens; experiment: Primary AML MNC ex-vivo culture (CyTOF, flow cytometry); assay type: cell-based, human; conditions: αPD-1 alone or combined with LD2, 4 days ex-vivo
Experimental: Spanning-tree Progression Analysis of Density-normalized Events (SPADE) clustering was performed to identify cell groups corresponding to immunophenotypic subsets across normal hematopoiesis lineages. The frequency of CD3^+ T cells and CD34^+CD45^dim AML blast cells were noted. […] The relative number of alive CD34^+CD45^dim AML blast cells was assessed by flow cytometry. Data are presented as mean±SD from 3 independent experiments.
After 4 days treatment of vehicle (VEH) or LD2, survival of leukemic (CD34+CD33+) and immune subsets, including T cells (CD3+), B cells (CD19+/CD20+), and DCs (HLA-DR+CD34−CD33−CD3−CD19−CD20−CD14−CD56−), were accessed using Annexin-V staining.
LD2 treatment in total of 4 days ex-vivo culture (under the BM stroma cytokine condition).

Cc1cccc2c1c1ccc3c(c1n2C)C(=O)C=CC3=O [NSC645330]
PRMT9 inhibition (catalytic activity screen of top 20 compounds) (PRMT9): most potent PRMT9 inhibition

COc1ccc2c(c1)c1ccc3c(c1n2C)C(=O)C=CC3=O [NSC641396]
PRMT9 inhibition (catalytic activity screen of top 20 compounds) (PRMT9): most potent PRMT9 inhibition
PRMT9 inhibitory effects (PABP1 R493me levels) (PRMT9; different concentrations of each compound, comparison among the three NSC compounds): most potent PRMT9 inhibitory effects

αPD-1: anti-PD-1 (pembrolizumab, SIM0010, BioXCell) used in ex-vivo AML cultures
proportion / frequency of tumor cells [1]: marginally decreased the proportion of tumor cells

Cc1ccc2c(c1)c1ccc3c(c1n2C)C(=O)C=CC3=O [NSC661221]
PRMT9 inhibition (catalytic activity screen of top 20 compounds) (PRMT9): most potent PRMT9 inhibition
